# Results reported in patent US20260240802A1, “USE OF MYRIOCIN AS ADJUVANT IN GLAUCOMA SURGERY” (priority 2023, published 2026).
# “Also recorded” adds a separate entry of the source. Where two headings read alike, the source gives them in different places.
# Tests used:
# fibroblasts [1] = settings: Josamycin 69.4 μg/ml (JM69.4); cited from earlier work
# human dermic fibroblasts [2] = assay type: cell-based; settings: for total cells after 24 hours of treatment: human
# Experimental: (§1) The fibroblasts, cultivated in culture medium DMEM (EuroClone) additioned with 10% of Fetal Bovine Serum (EuroClone) and 1% of penicillin/streptomycin (Sigma-Aldrich), were kept in incubator at 37° C., 5% of CO2 until reaching the full confluence which corresponds approximately to 1.2-1.3*10^6 cells. After detachment from the culture flasks (T75) with a solution of trypsin/EDTA, 1.5-2.5*10^5 or 4.0*10^5 fibroblasts were respectively plated in 60-mm or 100-mm wide Petri dishes for the subsequent treatments.
# The fibroblasts, cultivated in ninety-six-well plates, were divided into the experimental groups: ctr, Mito and Myr. 24 hours after sowing (T0), the controls were collected for counting the live and dead cells and one proceeded with the treatment of the groups Mito and Myr for the subsequent 24 hours, with the respective substances. After detachment with a solution of trypsin/EDTA, the fibroblasts were isolated by centrifugation (100 g×6 minutes) and the obtained precipitate was resuspended in phosphate buffer. To the cellular suspension, 10% of 0.4% Trypan Blue dye solution was added. The live cells and the dead cells, coloured blue for the intracellular permeation of the dye through the damaged plasmatic membrane, are counted by using Bürker camera (Fabiani C., et al., Naunyn-Schmiedebergs Arch. Pharmacol. 2017; 390:741-751).
# postoperative fibrosis = settings: after 5 years, mitomycin C in intraoperative therapy (before: 24-74% after 4 years); cited from earlier work
# human dermic fibroblasts [3] = experiment: Scratch test assay; assay type: cell-based
# Experimental: as §1
# In six-well plates, 150,000 fibroblasts/well were plated and left to proliferate until reaching a confluence of 80-90%. At this point, defined time zero (T0), the cellular monolayer is damaged by creating a vertical groove corresponding to the well diameter.
# collagen = experiment: transcription and translation of collagen in fibroblasts (FIG. 4); assay type: cell-based; settings: pre-treated 1 hour with Myriocin 50 µM, then 24 hours in combination with TGFβ 5 ng/ml
# Experimental: FIG. 4: Ctrl: not treated fibroblasts; TGFβ: fibroblasts treated 24 hours with TGFβ 5 ng/ml; TGFβ/Myr: fibroblasts pre-treated 1 hour with Myriocin 50 µM and for subsequent 24 hours in combination with TGFβ 5 ng/ml; TGFβ/Mito: fibroblasts pre-treated 5 minutes with Mitomycin 50 µM, and for subsequent 24 hours with TGFβ 5 ng/ml in absence of Mitomycin.
# [4] = tested on: αSMA (α Smooth Muscle Actin); experiment: RT-PCR expression of transcript αSMA in fibroblasts; assay type: cell-based, human; settings: myriocin 50 μM 1 hour pretreatment + 24 hours with TGFβ 5 ng/ml
# Experimental: (§2) Expression of the transcript (mRNA) of αSMA, CTGF, MMP-9 evaluated by RT-PCR, in fibroblasts: control (ctr); stimulated with TGFβ (TGFβ); pretreated 1 hour with Myriocin and for the subsequent 24 hours in combination with TGFβ (Myr/TGFβ); pretreated 5 minutes with Mitomycin C, washed and treated for the subsequent 24 hours with TGFβ (Mito/TGFβ); pretreated 1 hour with Myriocin and for the subsequent 24 hours with Myriocin (Myr); pretreated 5 minutes with Mitomycin C, washed and for the subsequent 24 hours with culture medium (Mito). The results represent the average±standard error of 5 experiments and they are represented as variation with respect to the control (ratio between the expression in the various groups and the control). The control is set equal to 1 and designated in figure with the dotted line. […]
# (§3) The following transcripts of interest were analysed: • αSMA (α Smooth Muscle Actin): marker of the activation of the fibroblasts to miofibroblasts; • CTGF (Connective Tissue Growth Factor): protein of the extracellular matrix with pro-fibrotic activity; • MMP-9 (Matrix metalloproteinase 9): enzyme which degrades the proteins of the extracellular matrix.
# [5] = tested on: MMP-9 (Matrix metalloproteinase 9); experiment: RT-PCR expression of transcript MMP-9 in fibroblasts; assay type: cell-based, human; settings: myriocin 50 μM 1 hour pretreatment + 24 hours with TGFβ 5 ng/ml
# Experimental: as §2, §3
# [6] = target: T1, serine-palmitoyl transferase (Homo sapiens, UniProt O15269+O15270); experiment: mass spectrometry of the ceramide content of fibroblasts; assay type: cell-based; settings: myriocin 50 μM
# T1 construct: the fibroblasts were isolated by centrifugation; endogenous in cells
# T1 sequence (O15269 1-473): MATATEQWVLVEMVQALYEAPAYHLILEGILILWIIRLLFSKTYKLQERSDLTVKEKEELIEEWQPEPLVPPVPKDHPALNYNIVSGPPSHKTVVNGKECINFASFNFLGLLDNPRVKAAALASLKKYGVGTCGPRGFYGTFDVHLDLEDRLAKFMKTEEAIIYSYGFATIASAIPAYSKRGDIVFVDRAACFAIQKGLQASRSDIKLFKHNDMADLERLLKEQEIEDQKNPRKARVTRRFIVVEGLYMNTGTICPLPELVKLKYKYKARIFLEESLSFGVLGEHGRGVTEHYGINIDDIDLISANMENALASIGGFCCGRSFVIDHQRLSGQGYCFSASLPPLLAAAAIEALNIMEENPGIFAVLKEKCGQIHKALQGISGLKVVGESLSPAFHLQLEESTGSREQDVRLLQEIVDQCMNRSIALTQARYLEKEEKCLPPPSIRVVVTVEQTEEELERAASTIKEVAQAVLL
# T1 sequence (O15270 1-562): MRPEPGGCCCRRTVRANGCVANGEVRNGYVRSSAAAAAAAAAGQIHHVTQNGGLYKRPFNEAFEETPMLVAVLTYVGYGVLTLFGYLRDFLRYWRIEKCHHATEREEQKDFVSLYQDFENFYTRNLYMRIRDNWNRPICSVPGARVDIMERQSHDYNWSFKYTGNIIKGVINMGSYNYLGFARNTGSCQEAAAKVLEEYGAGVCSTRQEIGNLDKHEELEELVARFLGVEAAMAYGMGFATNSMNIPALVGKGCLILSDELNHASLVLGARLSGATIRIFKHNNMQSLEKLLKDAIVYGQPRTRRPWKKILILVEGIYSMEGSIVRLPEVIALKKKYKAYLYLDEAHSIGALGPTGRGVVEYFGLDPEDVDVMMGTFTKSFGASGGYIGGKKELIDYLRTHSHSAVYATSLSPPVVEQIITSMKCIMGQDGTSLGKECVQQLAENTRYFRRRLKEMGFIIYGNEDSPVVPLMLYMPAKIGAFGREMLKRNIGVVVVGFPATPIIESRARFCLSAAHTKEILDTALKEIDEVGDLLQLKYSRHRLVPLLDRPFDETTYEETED
# T1 sequence (Q969W0 1-71 partner): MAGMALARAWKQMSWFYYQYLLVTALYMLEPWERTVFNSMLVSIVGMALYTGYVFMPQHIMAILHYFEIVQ
# Experimental: On the day of treatment, in groups ctr, TGFβ, Myr, Myr/TGFβ the culture medium was replaced by fresh medium. The groups Myr and Myr/TGFβ were pretreated for 1 hour with myriocin 5 mM (Sigma-Aldrich) so as to obtain a final concentration of 50 μM. […] The pretreatment with mitomycin C, lasting 5 minutes to simulate the administration time in the operating room of the drug on the patient suffering from glaucoma, was interrupted by two washes, each one lasting 2 minutes, with phosphate buffer (PBS). To the groups TGFβ, Myr/TGFβ and Mito/TGFβ, TGFβ 200 ng/ml is then added to obtain a final concentration of 5 ng/ml, as reported in literature (Wu N. et al., Mol Cell Biochem. 2020; 470:175-188). The fibroblasts were then put in incubator for 24 hours, until performing the different analyses.
# After detachment with a solution of trypsin/EDTA, the fibroblasts were isolated by centrifugation (100 g×6 minutes). The obtained precipitate was resuspended in phosphate buffer (PBS), centrifuged at 100 g×6 minutes, resuspended again in phosphate buffer (PBS) and centrifuged at 500 g×5 minutes at 4° C. The precipitate was resuspended in 100 μl of PBS containing a mixture of protease inhibitors (Protease Inhibitor Cocktails, EDTA-free, Roche) and kept at −20° C. until use. The extraction of the lipids and the analysis of the samples for evaluating the ceramide content, whose synthesis is locked by inhibiting the enzyme serine-palmitoyl transferase by Myr, follow published protocols (Morano C. et al., Metabolites. 2022; 12 (5): 450).
# human dermic fibroblasts [7] = assay type: cell-based; settings: fibroblasts activated with TGFβ, compared with mitomycin C
# Experimental: The anti-fibrotic activity of myriocin, compared to that of mitomycin C, was evaluated in vitro by using human dermic fibroblasts of healthy subjects, available commercially.
# as §1
# The cells were divided into six experimental groups: • 1. control group without treatment (denominated ctr) • 2. group treated with TGFβ (denominated TGFβ) • 3. group treated with Myriocin and TGFβ (denominated Myr/TGFβ) • 4. group treated with Mitomycin C and TGFβ (denominated Mito/TGFβ) • 5. group treated with Myriocin (denominated Myr) • 6. group treated with Mitomycin C (denominated Mito)
# On the day of treatment, in groups ctr, TGFβ, Myr, Myr/TGFβ the culture medium was replaced by fresh medium. The groups Myr and Myr/TGFβ were pretreated for 1 hour with myriocin 5 mM (Sigma-Aldrich) so as to obtain a final concentration of 50 μM. […]
# fibroblasts [8] = experiment: proliferation/vitality MTT assay; assay type: cell-based; settings: 24 hours, Myriocin 50 μM, not treated fibroblasts = 100%
# Experimental: These proliferation data result to be an improvement with respect to those obtained by the authors with JM47.2, which is equivalent to a concentration of approximately 56 μM, not considered among the effective concentrations in anti-fibrotic sense.
# [9] = tested on: CTGF (Connective Tissue Growth Factor); experiment: RT-PCR expression of transcript CTGF in fibroblasts; assay type: cell-based, human; settings: myriocin 50 μM 1 hour pretreatment + 24 hours with TGFβ 5 ng/ml
# Experimental: as §2, §3
smiles,measurement,setting,value
CO[C@@H]1[C@@H](O[C@@H]2O[C@H](C)[C@@H](O[C@H]3C[C@@](C)(O)[C@@H](OC(=O)CC(C)C)[C@H](C)O3)[C@H](N(C)C)[C@H]2O)[C@@H](CC=O)C[C@@H](C)[C@@H](O)/C=C/C=C/C[C@@H](C)OC(=O)C[C@H]1OC(C)=O [Josamycin],proliferation percentage of the fibroblasts,fibroblasts [1],less than 50%
CO[C@@]12[C@H](COC(N)=O)C3=C(C(=O)C(C)=C(N)C3=O)N1C[C@@H]1N[C@@H]12 [Mitomycin C],change of total cells after 24 hours,human dermic fibroblasts [2],halved
same,total cells after 24 hours of treatment,human dermic fibroblasts [2],5466 total cells/well
same,percentage of failure of the surgical therapy,postoperative fibrosis,23-51%
same,cellular death,"human dermic fibroblasts [3]; 50 μM, 24 and 48 hours",induced a progressive cellular death
same,migration of fibroblasts after damage of the cellular carpet,"human dermic fibroblasts [3]; 50 μM, 24 and 48 hours, listed as Mitomycin",migrate only partially
same,migration of fibroblasts after damage of the cellular carpet,"human dermic fibroblasts [3]; 50 μM, 24 and 48 hours, listed as mitomycin C",reduced the migration of fibroblasts
same,morphological change of fibroblasts,human dermic fibroblasts [3]; between T1 (24 hours) and T2 (48 hours),progressive morphological change (from tapering to rounded)
CCCCCCC(=O)CCCCCC/C=C/C[C@@H](O)[C@H](O)[C@@](N)(CO)C(=O)O [Myriocin],transcription (panel A) and translation (panel B) of collagen,collagen,capable of controlling the transcription (panel A) and the translation (panel B) of collagen
same,increase of total cells after 24 hours,human dermic fibroblasts [2]; after 24 hours vs T0,about 70%
same,total cells after 24 hours of treatment,human dermic fibroblasts [2],11733 total cells/well
same,reduction of αSMA transcript expression increase induced by TGFβ,[4],more effective than mitomycin C; also recorded: reduces the expression of αSMA
same,reduction of MMP-9 transcript expression increase induced by TGFβ,[5],more effective than mitomycin C; also recorded: reducing the expression of MMP-9
same,reduction of ceramide level with respect to basal ctr,[6]; Myr group vs ctr,about 15%
same,reduction of dihydroceramide level with respect to basal ctr,[6]; Myr group vs ctr,~25%
same,reduction of ceramide level with respect to the group stimulated with TGFβ,"[6]; Myr/TGFβ vs TGFβ, TGFβ 5 ng/ml",~50%
same,reduction of dihydroceramide level with respect to the group stimulated with TGFβ,"[6]; Myr/TGFβ vs TGFβ, TGFβ 5 ng/ml",~60%
same,anti-fibrotic efficacy,human dermic fibroblasts [7],comparable to mitomycin C
same,anti-fibrotic efficacy,human dermic fibroblasts [7]; listed as myriocin,comparable to that of the drug mitomycin C
same,% proliferation (relative proliferation/vitality index),fibroblasts [8],higher than 60%
same,% proliferation (relative proliferation/vitality index),fibroblasts [8]; listed as MYR,62%
same,reduction of CTGF transcript expression increase induced by TGFβ,[9],more effective than mitomycin C
same,migration of fibroblasts after damage of the cellular carpet,"human dermic fibroblasts [3]; 50 μM, 24 and 48 hours",migrate only partially
same,migration of fibroblasts after damage of the cellular carpet,"human dermic fibroblasts [3]; 50 μM, 24 and 48 hours, listed as myriocin",reduced the migration of fibroblasts
